Reference: ChEMBL document CHEMBL1135700, “Design, synthesis and activity of ascorbic acid prodrugs of nipecotic, kynurenic and diclophenamic acids, liable to increase neurotropic activity” (2002)

System: Mus musculus
Test: Compound administered at a concentration of 0.75 mmol/kg intraperitoneally was evaluated for its effect on pentylenetetrazole induced convulsions in mice, measured as latency to convulsion

C1CCc2nnnn2CC1.O=C1O[C@H]([C@@H](O)COC(=O)C2CCCNC2)C(O)=C1O (stereo partly specified)
Latency: 922 s
